Experimental findings from patent US11542475B2, “3D microphysiologic system” (Northwestern University, priority 2014, dated 2023) are described below.

The subject of one assay is p53 stabilization in FTE. Put plainly: 3D human fimbriae culture: p53 immunohistochemistry. In kind it is cell-based. The following applies: 2 and 7 days treatment, n=8. The method, then:
(§1) Tissues were micro-dissected in alpha-MEM (Gibco, Carlsbad, Calif.) with 1% penicillin-streptomycin (Invitrogen, Carlsbad, Calif.). Individual fimbriae were separated into ˜50 mm^3 pieces. A portion of the tissue was fixed in 2% paraformaldehyde for use as an uncultured control. For optimization studies, fimbriae were cultured without matrix, encapsulated in 0.5% alginate, or encapsulated in 0.5% alginate with 1 mg/ml collagen and 0.1% fibronectin, as previously described for murine cultures (King et al. J Vis Exp. 2011.; herein incorporated by reference in its entirety). For subsequent treatments, 0.5% alginate encapsulated fimbriae were randomly assigned to treatment groups, with at least five fimbriae per condition, per patient, in a 24-well plate containing alpha-MEM and 1% penicillin-streptomycin. […] Prior to fixation, fimbriae were labeled with 10 μM bromodeoxyurine (BrdU, Sigma-Aldrich) for 24 hours to denote proliferating cells. Fimbriae cultures were fixed (2% paraformaldehyde) followed by dehydration in ethanol and xylene, and embedment in paraffin.
Sections (5 μm) were cut and stained via hematoxylin and eosin for morphological analysis or immunohistochemistry was performed to localize proteins of interest as previously described (King et al. Endocr Relat Cancer. 2011. 18:627-42.; herein incorporated by reference in its entirety). Slides were rehydrated through an ethanol gradient, prior to 0.1M sodium citrate retrieval and peroxidase block. […]
Immunohistochemistry images were taken via a Nikon E600 microscope, DXM1200 digital camera and NIS Elements software (Nikon Instruments, Melville, N.Y.). […] BrdU sections were imaged and epithelial cells (CK8 positive) were quantified for proliferation via ImageJ software (NIH, Bethesda, Md.). At least three fimbriae with 200 or more FTE were quantified for each treatment. Analysis of p53 staining was similar, with at least three fimbriae per treatment, per patient analyzed. Samples with p53 expression were quantified utilizing adjacent sections stained for the secretory cell marker PAX8 in a qualitative manner as described.

The subject of another assay is FGF2. Put plainly: ELISA of fallopian culture medium: FGF2. In kind it is cell-based, human. The conditions noted are these: 10 nM E2, 7 days, n=6; not significantly altered. The method, then:
as §1, with “Fimbriae cultures were fixed (2% paraformaldehyde) followed by dehydration in ethanol and xylene, and embedment in paraffin.” left out
(§2) IL8, VEGF-A, and FGF2 were detected in fallopian culture medium by enzyme-linked immunosorbent assay for human IL8 (EMD Millipore, Billerica, Mass., USA), VEGF-A (RayBiotech, GA, USA), or FGF2 (Abcam) respectively using the manufacturers' protocols. […] Results were normalized to total protein content as determined by western blotting and Ponceau staining to account for difference in tissue size between treatment groups. […]
A general note: ELISA stands for enzyme-linked immunosorbent assay.

The test system of assay [1] is human fallopian fimbriae FTE. Put plainly: 3D human fimbriae culture: FTE proliferation by BrdU labeling. It is filed as cell-based. The following applies: insulin 5 μg/ml (ITS), H2O2 1 mM, E2 10 nM, n=6. The method, then:
as §1
Sections (5 μm) were cut and stained via hematoxylin and eosin for morphological analysis or immunohistochemistry was performed to localize proteins of interest as previously described (King et al. Endocr Relat Cancer. 2011. 18:627-42.; herein incorporated by reference in its entirety). Slides were rehydrated through an ethanol gradient, prior to 0.1M sodium citrate retrieval and peroxidase block. Tissues probed for BrdU were exposed to 4M HCl and 0.1M NaB4O7(Fisher Scientific) to denature DNA. All immunohistochemical reagents were obtained from Vector Laboratories, Inc (Burlingame, Calif.) unless otherwise stated. Tissues were blocked in 3% bovine serum albumin (Gemini, West Sacramento, Calif.)-TBS/10% serum and incubated with a primary antibody 1:50 acetylated tubulin (Cell Signaling, Cambridge, Mass.); 1:200 BrdU (AbCam, Cambridge, Mass.); 1:100 cytokeratin 8 (CK8, Developmental Studies Hybridoma Bank, Iowa City, Iowa); 1:50 p53 (Santa Cruz, Santa Cruz, Calif.); 1:100 PAX8 (Proteintech, Chicago, Ill.); 1:100 pH2AX (Cell Signaling); or 1:75 PR (Santa Cruz)) overnight at 4°. Tissues were washed in TBS-0.1% Tween and incubated with a secondary antibody (1:200), before being probed with ABC peroxidase standard, followed by detection with 3,3′-diaminobenzidine (DAB) and counterstained with hematoxylin.
Immunohistochemistry images were taken via a Nikon E600 microscope, DXM1200 digital camera and NIS Elements software (Nikon Instruments, Melville, N.Y.). For proliferation analysis, concurrent sections were stained for CK8 and BrdU. BrdU sections were imaged and epithelial cells (CK8 positive) were quantified for proliferation via ImageJ software (NIH, Bethesda, Md.). At least three fimbriae with 200 or more FTE were quantified for each treatment. […] Samples with p53 expression were quantified utilizing adjacent sections stained for the secretory cell marker PAX8 in a qualitative manner as described.

The test system of assay [2] is OVGP1 expression in human fallopian epithelium. Put plainly: OVGP1 immunoblot of cultured fallopian epithelium lysate. In kind it is cell-based. The method, then:
Human fallopian tissue was obtained from routine hysterectomies from women in their reproductive years (ages range from 26 to 50 years old) and who had not undergone exogenous hormonal treatment for at least three months prior to surgery. Informed consent was obtained from each patient and approval granted by the ethics committee of the Northwestern University. Human fallopian tissue was kept in the DMEM/F12 medium with 10% FBS on ice and processed within 24 hours. The tissue was washed with warm PBS solution two times before being transferred into warm dissection medium (Liebowitz 15 with 0.5% P/S and 10% FBS). After cleaning connective tissue from outside of the fallopian tissue, the fallopian tube was cut open and the inner epithelia layer was mechanically dissected using forceps. […] Tissue was cultured on 0.4 μm pore Millicell inserts (PICM03050, EMD Millipore Co, Billerica, Mass., USA) twelve-well plates with culture medium in a 37° C. and 5% CO2 incubator. Estrogen (E2) and progesterone (P4) used in tissue culture experiments were purchased from Sigma (St. Louis, Mo.).
Cultured human fallopian epithelia layers were homogenized with a minipestle in ice-cold lysis buffer (20 mM Tris-HCl, pH 8.0, 137 mM NaCl, 10% glycerol, 1% NP-40, 2 mM EDTA). Lysate normalized for protein content was loaded into NuPAGE 4-12% gradient Bis-Tris precast SDS-PAGE gels and transferred to a nitrocellulose membrane (Life Technologies, Carlsbad, Calif., USA). Blots were probed by polyclonal anti-OVGP1 antibody (LsBio, Cambridge, Mass.) overnight in 4° C. followed by anti-rabbit secondary antibody conjugated to horseradish peroxidase (Zymed, San Francisco, Calif.). Proteins were detected by ECL primer (GE HealthCare Life Sciences, Pittsburgh, Pa.) and exposed to X-ray film (Kodak, Rochester, N.Y.). The same blot was stripped using stripping buffer (Thermo Scientific, Hanover Park, Ill.) and re-probed with monoclonal anti-α-tubulin (Sigma, St. Louis, Mo.) followed by an anti-mouse secondary antibody conjugated to horseradish peroxidase. NIH ImageJ Imaging Software was used to quantify the density of western blot bands. Conditioned medium from fallopian epithelia cultures was collected and probed via western blot analysis using a polyclonal anti-hIGF1 antibody (abcam, Cambridge, Mass.). The blot was detected by the same method described above.
(In general: Immunoblotting shows a protein as a band on a membrane.)

Another assay concerns IL8. In words: ELISA of fallopian culture medium: IL8. It is filed as cell-based, human. The following applies: 10 nM E2, 7 days, conditioned medium, n=7. The procedure: as §1, with “Fimbriae cultures were fixed (2% paraformaldehyde) followed by dehydration in ethanol and xylene, and embedment in paraffin.” left out
as §2

For the compound `C[C@]12CC[C@@H]3c4ccc(O)cc4CC[C@H]3[C@@H]1CC[C@@H]2O` [E2, estradiol], in the assay with p53 stabilization in FTE, the p53 stabilization result was “no factor notably induced p53 stabilization”. The “FGF2 decrease compared to vehicle control” value in the assay on FGF2 is 9%±8%. For the same compound, the “FTE proliferation (percentage of total FTE cells, BrdU)” value was determined as 5.2±2.3% in assay [1] (2 days in culture) and 2.4±0.5% in assay [1] (7 days in culture). Besides, the “OVGP1 expression in the fallopian lysate” value in assay [2] (7 days culture, P4 added to E2) was “induction”. In addition, in assay [2] (28 days stepwise E2 and P4 treatment, P4 in the presence of E2), the OVGP1 expression result is given as “stimulated”. Further, in the assay on IL8, the “IL8 increase compared to vehicle control” value was 22%±13%.
